One assay addresses T1, Human alpha-thrombin (Homo sapiens, UniProt P00734).
T1 construct: Human alpha-thrombin (Enzyme Research Labs); purchased Enzyme Research Labs
The assay can be described thus: Thrombin counterscreen for selectivity, fluorogenic substrate assay. It is filed as biochemical. The note with it: Human alpha-thrombin 12.5 nM, Boc-Val-Pro-Arg-AMC 20 μM, 10 min preincubation. The procedure:
Counterscreens for Selectivity:
In a 96-well white opaque plate, 80 μl of assay buffer was added to each well. Test compounds were added, and serially diluted as above, to generate a concentration range of approximately 1-100 μM. […] 80 μl of this enzyme solution was added to the assay wells. The enzyme/compound mixtures were incubated for 10 minutes at room temperature. Fluorogenic substrate (Boc-Val-Pro-Arg-7-amido-4-methylcoumarin; Sigma) was added to assay wells at a final concentration of 20 μM. The assay plate was spun for 1 minute at 1500 g and then read at 37° C. in a SpectraMax M2 plate reader (λex=380 nm and λem=460 nm). Activity was quantified as the rate of change in fluorescence, which corresponds to the rate of substrate cleavage.

A further assay deals with T2, Human FXIIa (Homo sapiens, UniProt P00748).
T2 construct: active coagulation factor XII (FXIIa); purchased Enzyme Research Labs
T2 sequence (P00748 373-615 limits assumed): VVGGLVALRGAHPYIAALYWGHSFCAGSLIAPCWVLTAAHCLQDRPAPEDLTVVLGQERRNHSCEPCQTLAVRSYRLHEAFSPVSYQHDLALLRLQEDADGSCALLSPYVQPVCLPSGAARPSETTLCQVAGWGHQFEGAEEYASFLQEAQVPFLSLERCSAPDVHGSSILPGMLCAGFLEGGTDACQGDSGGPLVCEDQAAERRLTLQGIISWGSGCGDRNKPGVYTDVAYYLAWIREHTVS
T2 sequence (P00748 20-372 partner limits assumed): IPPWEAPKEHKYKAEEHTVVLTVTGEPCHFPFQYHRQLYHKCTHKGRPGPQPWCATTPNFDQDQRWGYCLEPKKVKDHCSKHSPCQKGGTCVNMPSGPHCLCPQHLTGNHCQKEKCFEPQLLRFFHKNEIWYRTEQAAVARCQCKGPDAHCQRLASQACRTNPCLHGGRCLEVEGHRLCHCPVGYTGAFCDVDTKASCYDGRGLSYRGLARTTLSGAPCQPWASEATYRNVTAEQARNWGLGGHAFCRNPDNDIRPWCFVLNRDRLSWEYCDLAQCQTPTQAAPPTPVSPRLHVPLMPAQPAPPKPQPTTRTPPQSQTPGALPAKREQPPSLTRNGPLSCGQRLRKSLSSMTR
The assay can be described thus: Factor XIIa (FXIIa) inhibitory activity, chromogenic substrate assay. It counts as biochemical. The note with it: Human FXIIa 12.5 nM, Pefachrome XIIa 400 μM, 10 min preincubation. The method in brief: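 Buffer was 0.5× HBSS with 25 mM HEPES pH 7.4 and 0.5× TBS-Tween 0.05%. Enzyme and compound (about 1–100 μM) were preincubated 10 min at room temperature, then Pefachrome XIIa was added at 400 μM final. Substrate cleavage was followed as the rate of A405 change at 37 °C.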

pIC50: −log10 of the molar value.

As for `Nc1nn(C(=O)c2cccc3[nH]ncc23)c2c1CCCC2` [Example 157], the results for the pIC50 on Human alpha-thrombin and against Human FXIIa were less than 4.00 and 4.52, respectively.

On to `CC(C)(C)c1cccc(C(=O)n2nc3c(c2N)CCCC3)c1` [Example 31, (3-amino-4,5,6,7-tetrahydroindazol-2-yl)(3-tert-butylphenyl)methanone], for which the results for the negative logarithm of the IC50 (pIC50) against Human alpha-thrombin and at Human FXIIa were less than 4.30 and 6.82, respectively.

Consider `Cc1cc2c(o1)CCCC2C(=O)n1nc2c(c1N)CCCC2` (stereo not drawn) [Example 85, (3-amino-4,5,6,7-tetrahydro-2H-indazol-2-yl)(2-methyl-4,5,6,7-tetrahydrobenzofuran-4-yl)methanone], for which the negative logarithm of the IC50 (pIC50) against Human alpha-thrombin is 4.52; against Human FXIIa it was 6.40.

For the compound `Nc1c2c(nn1C(=O)c1c[nH]c3ccccc13)CCCC2` [Example 42, (3-amino-4,5,6,7-tetrahydroindazol-2-yl)(1H-indol-3-yl)methanone], the pIC50 against Human alpha-thrombin was less than 4.00; at Human FXIIa it was 4.96.

For the compound `CC(C)c1cc2c(C(=O)n3nc4c(c3N)CCCC4)cccc2[nH]1` (single isomer, unassigned) [Example 51, (3-amino-4,5,6,7-tetrahydroindazol-2-yl)(2-isopropyl-1H-indol-4-yl)methanone], the pIC50 against Human alpha-thrombin was less than 4.30; at Human FXIIa, 6.40.

On to `Nc1c2c(nn1C(=O)[C@H]1CCCc3[nH]c(Cl)cc31)CC[C@@H](O)C2` (single isomer, unassigned) [Example 125], for which the pIC50 was less than 4.00 on Human alpha-thrombin and 5.85 against Human FXIIa.

Turning to `Cc1cc2c(s1)CCCC2C(=O)n1nc2c(c1N)CCCC2` (stereo not drawn) [Example 86, (3-amino-4,5,6,7-tetrahydroindazol-2-yl)(2-methyl-4,5,6,7-tetrahydrobenzo[b]thiophen-4-yl)methanone], the pIC50 at Human alpha-thrombin is less than 4.10; on Human FXIIa, 6.30.

Take `CCn1ccc2c(C(=O)n3nc4c(c3N)CCCC4)cccc21` [Example 28, (3-amino-4,5,6,7-tetrahydroindazol-2-yl)(1-ethyl-1H-indol-4-yl)methanone]: the values for the pIC50 against Human alpha-thrombin and against Human FXIIa were 4.44 and 7.22, respectively.

For `Cc1cc2c(C(=O)n3nc(N)c4c3CCCC4)cccc2o1` (single isomer, unassigned) [Example 59, (3-amino-4,5,6,7-tetrahydroindazol-1-yl)(2-methylbenzofuran-4-yl)methanone], the negative-log IC50 (pIC50) at Human alpha-thrombin and against Human FXIIa was less than 4.00 each time.

In the case of `Cc1nn(C(=O)c2cccc3[nH]ccc23)c2c1CCCC2` (single isomer, unassigned) [Example 4, (1H-indol-4-yl)(3-methyl-4,5,6,7-tetrahydroindazol-1-yl)methanone], the pIC50 at Human alpha-thrombin is 4.35; against Human FXIIa, 4.19.

As to `Nc1nn(C(=O)c2cccc3[nH]ccc23)c2c1CCCC2` (single isomer, unassigned) [Example 2, (3-amino-4,5,6,7-tetrahydroindazol-1-yl)(1H-indol-4-yl)methanone], the negative logarithm of the IC50 (pIC50) on Human alpha-thrombin and on Human FXIIa was less than 4.30 throughout.

Regarding `COc1ccc(C(=O)n2nc3c(c2N)CCCC3)c2cc[nH]c12` [Example 80, (3-amino-4,5,6,7-tetrahydroindazol-2-yl)(7-methoxy-1H-indol-4-yl)methanone], the pIC50 was 4.17 against Human alpha-thrombin and 6.60 against Human FXIIa.

Consider `Cc1cc2c(C(=O)N3N=C(N)C4CCCCC43)cccc2[nH]1` (stereo not drawn) [Example 10, (3-amino-3a,4,5,6,7,7a-hexahydroindazol-1-yl)(2-methyl-1H-indol-4-yl)methanone], for which the pIC50 at Human alpha-thrombin was less than 4.00; against Human FXIIa, 4.05.

In the case of `Cc1cc2c(C(=O)n3nc4c(c3N)CCCC4)cccc2[nH]1` (single isomer, unassigned) [Example 9, (3-Amino-4,5,6,7-tetrahydroindazol-2-yl)(2-methyl-1H-indol-4-yl)methanone], the values for the pIC50 at Human alpha-thrombin and against Human FXIIa were 4.40 and 7.70, respectively.

Consider `Nc1nn(C(=O)C2OCCc3ccccc32)c2c1CCCC2` (single isomer, unassigned) [Example 15, (3-amino-4,5,6,7-tetrahydroindazol-1-yl)(isochroman-1-yl)methanone], for which the pIC50 against Human alpha-thrombin and against Human FXIIa was less than 4.00 in each case.

Turning to `CCCn1ccc2c(C(=O)n3nc4c(c3N)CCCC4)cccc21` [Example 36, (3-amino-4,5,6,7-tetrahydroindazol-2-yl)(1-propyl-1H-indol-4-yl)methanone], the negative-log IC50 (pIC50) at Human alpha-thrombin was less than 4.10; against Human FXIIa it was 6.70.

As to `Nc1c2c(nn1C(=O)[C@H]1CCNc3ccc(F)cc31)C[C@@H](O)CC2` (single isomer, unassigned) [Example 183, ((6S*)-3-amino-6-hydroxy-4,5,6,7-tetrahydroindazol-2-yl)((4S*)-6-fluoro-1,2,3,4-tetrahydroquinolin-4-yl)methanone], the pIC50 against Human alpha-thrombin is less than 4.00; against Human FXIIa it was 6.22.

As for `Nc1c2c(nn1C(=O)[C@H]1CCNc3c(Cl)cccc31)C[C@H](O)CC2` (single isomer, unassigned) [Example 209, ((6R*)-3-amino-6-hydroxy-4,5,6,7-tetrahydroindazol-2-yl)((4S*)-8-chloro-1,2,3,4-tetrahydroquinolin-4-yl)methanone], the pIC50 against Human alpha-thrombin is less than 4.00; against Human FXIIa, 7.40.

In the case of `CCc1ccccc1C(=O)n1nc2c(c1N)CCCC2` [Example 40, (3-amino-4,5,6,7-tetrahydroindazol-2-yl)(2-ethylphenyl)methanone], the pIC50 is less than 4.00 against Human alpha-thrombin and 4.82 at Human FXIIa.

For `Nc1c2c(nn1C(=O)[C@H]1CCNc3ccc(F)cc31)CC[C@H](N)C2` (stereo in doubt) [Example 192, ((5S*)-3,5-diamino-4,5,6,7-tetrahydroindazol-2-yl)((4S*)-6-fluoro-1,2,3,4-tetrahydroquinolin-4-yl)methanone], the pIC50 on Human alpha-thrombin was less than 4.05; against Human FXIIa it was 7.10.

Take `Nc1c2c(nn1C(=O)c1cccc3[nH]ccc13)CCCC2` (single isomer, unassigned) [Example 1, (3-Amino-4,5,6,7-tetrahydro-2H-indazol-2-yl)(1H-indol-4-yl)methanone]: the pIC50 against Human alpha-thrombin is 4.60; at Human FXIIa it was 7.00.

As to `CO[C@H]1CCc2nn(C(=O)[C@H]3CCNc4ccc(F)cc43)c(N)c2C1` (single isomer, unassigned) [Example 177, ((5S*)-3-amino-5-methoxy-4,5,6,7-tetrahydroindazol-2-yl)((4S*)-6-fluoro-1,2,3,4-tetrahydroquinolin-4-yl)methanone], the pIC50 is less than 4.00 against Human alpha-thrombin and 5.70 against Human FXIIa.

For `Nc1nn(C(=O)c2cccc3c2CC(=O)N3)c2c1CCCC2` (single isomer, unassigned) [Example 65, 4-(3-amino-4,5,6,7-tetrahydro-1H-indazole-1-carbonyl)indolin-2-one], the pIC50 at Human alpha-thrombin and against Human FXIIa was less than 4.00 throughout.

For `Cc1csc(C)c1C(=O)n1cc2c(n1)CCCC2` [Example 35, 2-[(2,4-dimethylthiophen-3-yl)carbonyl]-4,5,6,7-tetrahydro-2H-indazole], the pIC50 on Human alpha-thrombin and at Human FXIIa was less than 4.00 in each case.

For the compound `Cc1cccc2c1NCC[C@@H]2C(=O)n1nc2c(c1N)CC[C@H](O)C2` (single isomer, unassigned) [Example 198, ((6S*)-3-amino-6-hydroxy-4,5,6,7-tetrahydroindazol-2-yl)((4S*)-8-methyl-1,2,3,4-tetrahydroquinolin-4-yl)methanone], the pIC50 was less than 4.00 against Human alpha-thrombin and 7.00 against Human FXIIa.

In the case of `Nc1c2c(nn1C(=O)[C@@H]1CCNc3c(Cl)cccc31)C[C@H](O)CC2` (single isomer, unassigned) [Example 210, ((6R*)-3-amino-6-hydroxy-4,5,6,7-tetrahydroindazol-2-yl)((4R*)-8-chloro-1,2,3,4-tetrahydroquinolin-4-yl)methanone], the pIC50 is less than 4.00 against Human alpha-thrombin and 5.48 against Human FXIIa.

Consider `Nc1c2c(nn1C(=O)[C@H]1CCNc3ccc(Cl)cc31)CC[C@H](O)C2` (single isomer, unassigned) [Example 143, ((5S*)-3-amino-5-hydroxy-4,5,6,7-tetrahydroindazol-2-yl)((4S*)-6-chloro-1,2,3,4-tetrahydroquinolin-4-yl)methanone], for which the pIC50 was less than 4.10 against Human alpha-thrombin and 5.89 against Human FXIIa.

As usually defined, the pIC50 is the IC50 on a negative log10 scale, so that one unit is a factor of ten. A low value points to a large IC50.

For the origin of these results see patent US10538512B2, “Aminoacylindazole immunomodulators for treatment of autoimmune diseases” (The Rockefeller University, priority 2016, dated 2020).
